Reference: US9499550B2 (BRISTOL-MYERS SQUIBB COMPANY, priority 2012, dated 2016)

Key:
[1] = test system: HCV genotype 1a (H77 strain) replicon in HUH-7 cells; test: HCV replicon luciferase reporter assay, genotype 1a; assay type: cell-based; conditions: Hepatitis C virus, Huh-7, 72 h, HCV genotype 1a replicon luciferase assay, 3 days incubation, range class, read-out: LE_1a (EC50, range)
How it was run: (§1)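 Replicon inhibition for both genotypes was measured as Renilla luciferase signal (EnduRen, 7.5 μM final, 2 h) after 3-day, 37° C exposure of replicon-bearing HUH-7 cells in 4% FCS DMEM, 0.5% DMSO. The 1b construct carries S1179I; the 1a H77 construct carries P1496L and S2204I. Twenty-point, 3-fold dilutions were fitted four-parametrically for EC50, and CC50 was taken from multiplexed Cell Titer-Blue.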

[2] = test system: HCV genotype 1b (Con1) replicon in HUH-7 cells; test: HCV replicon luciferase reporter assay, genotype 1b; assay type: cell-based; conditions: Hepatitis C virus, Huh-7, 72 h, HCV genotype 1b replicon luciferase assay, 3 days incubation, range class, read-out: LE_1b (EC50, range)
How it was run: as §1

Row | SMILES | EC50 [1] [nM] | EC50 [2] [nM]
1 | CC[C@@H]1C[C@@H](C)CC/C=C\[C@@H]2C[C@@]2(C(=O)NS(=O)(=O)C2CC2)NC(=O)[C@@H]2C[C@@H](Oc3nccc4c(OC)cccc34)CN2C(=O)[C@H]1NC(=O)NC(C)(C)C [Compound 3029, (2R,6S,7R,9S,13aS,14aR,16aS,Z)-6-(3-(tert-butyl)ureido)-N-(cyclopropylsulfonyl)-7-ethyl-2-((5-methoxyisoquinolin-1-yl)oxy)-9-methyl-5,16-dioxo-1,2,3,5,6,7,8,9,10,11,13a,14,14a,15,16,16a-hexadecahydrocyclopropa[e]pyrrolo[1,2-a][1,4]diazacyclopentadecine-14a-carboxamide] | 4.82 to 103 | 4.82 to 103
2 | CC[C@@H]1C[C@H](C)CC/C=C\[C@@H]2C[C@@]2(C(=O)NS(=O)(=O)C2CC2)NC(=O)[C@@H]2C[C@@H](Oc3nccc4c(OC)cccc34)CN2C(=O)[C@H]1NC(=O)NC(C)(C)C [Compound 3030, (2R,6S,7R,9R,13aS,14aR,16aS,Z)-6-(3-(tert-butyl)ureido)-N-(cyclopropylsulfonyl)-7-ethyl-2-((5-methoxyisoquinolin-1-yl)oxy)-9-methyl-5,16-dioxo-1,2,3,5,6,7,8,9,10,11,13a,14,14a,15,16,16a-hexadecahydrocyclopropa[e]pyrrolo[1,2-a][1,4]diazacyclopentadecine-14a-carboxamide] | < 5.46 | < 5.46
3 | CC[C@@H]1C[C@@H](C)CC/C=C\[C@@H]2C[C@@]2(C(=O)NS(=O)(=O)C2CC2)NC(=O)[C@@H]2C[C@@H](Oc3nccc4c(OC)cccc34)CN2C(=O)[C@H]1NC(=O)OC(C)(C)C(F)(F)F [Compound 3031, 1,1,1-trifluoro-2-methylpropan-2-yl((2R,6S,7R,9S,13aS,14aR,16aS,Z)-14a-((cyclopropylsulfonyl)carbamoyl)-7-ethyl-2-((5-methoxyisoquinolin-1-yl)oxy)-9-methyl-5,16-dioxo-1,2,3,5,6,7,8,9,10,11,13a,14,14a,15,16,16a-hexadecahydrocyclopropa[e]pyrrolo[1,2-a][1,4]diazacyclopentadecin-6-yl)carbamate] | 4.82 to 103 | 4.82 to 103
4 | CC[C@@H]1C[C@H](C)CC/C=C\[C@@H]2C[C@@]2(C(=O)NS(=O)(=O)C2CC2)NC(=O)[C@@H]2C[C@@H](Oc3nccc4c(OC)cccc34)CN2C(=O)[C@H]1NC(=O)OC(C)(C)C(F)(F)F [Compound 3032, 1,1,1-trifluoro-2-methylpropan-2-yl((2R,6S,7R,9R,13aS,14aR,16aS,Z)-14a-((cyclopropylsulfonyl)carbamoyl)-7-ethyl-2-((5-methoxyisoquinolin-1-yl)oxy)-9-methyl-5,16-dioxo-1,2,3,5,6,7,8,9,10,11,13a,14,14a,15,16,16a-hexadecahydrocyclopropa[e]pyrrolo[1,2-a][1,4]diazacyclopentadecin-6-yl)carbamate] | < 5.46 | < 5.46
5 | CC[C@@H]1C[C@@H](C)CC/C=C\[C@@H]2C[C@@]2(C(=O)NS(=O)(=O)C2(C)CC2)NC(=O)[C@@H]2C[C@@H](Oc3nccc4c(OC)cccc34)CN2C(=O)[C@H]1NC(=O)NC(C)(C)C [Compound 3033, (2R,6S,7R,9S,13aS,14aR,16aS,Z)-6-(3-(tert-butyl)ureido)-7-ethyl-2-((5-methoxyisoquinolin-1-yl)oxy)-9-methyl-N-((1-methylcyclopropyl)sulfonyl)-5,16-dioxo-1,2,3,5,6,7,8,9,10,11,13a,14,14a,15,16,16a-hexadecahydrocyclopropa[e]pyrrolo[1,2-a][1,4]diazacyclopentadecine-14a-carboxamide] | 4.82 to 103 | 4.82 to 103
